From patent US12421260B2, “Neurokinin-1 antagonist” (SHANGHAI SHENGDI PHARMACEUTICAL CO., LTD, priority 2019, dated 2025) come the findings set out here.

Converted amounts (≈) assume the structure as drawn.

The nature of data set [1]: Chemical stability of the compounds (Test Example 1). It is filed as physicochemical. To be noted: purity loss after placing for 7 days; 4° C. and room temperature. On the procedure: 2.1 Test of Stability of the Compounds
About 1 mg of sample was weighed into a vial, then the vial was placed in a vacuum bag and the bag was vacuumized. Then the bag was put into a container containing color-changing silica gel and sealed. Two parallel samples were prepared. Enough samples were prepared according to the sampling time point and placed at 4° C. and room temperature respectively.

Data set [2] is described as follows: Water solubility (Test Example 1). The conditions noted are these: for solubility: aqueous buffer, thermodynamic from solid. The data set is classed as physicochemical. On the procedure:
1.1. Preparation of Reagents
The 100 mL strength reagents were prepared as follows:
pH=3.0: phosphate buffer solution: 100 ml of 20 mmol/L NaH2PO4, 0.1M H3PO4, adjusting pH to 3.0.
pH=4.0: phosphate buffer solution: 100 ml of 20 mmol/L NaH2PO4, 0.1M H3PO4, adjusting pH to 4.0. […]
An appropriate amount of test compound was accurately weighed. The solution was added at a small amount each time for several times and stirred until the compound was dissolved, and the content of the compound in the solution was determined.

Data set [3] is described as follows: Plasma stability test (Test Example 3). The data set is classed as in vitro ADME. The conditions noted are these: human plasma; for plasma concentration of the compound of the examples / plasma concentration of rolapitant after metabolism of the compound of the examples: 37° C.; for stability and metabolism to rolapitant in plasma (in words): up to 180 min. As for the experimental part:
The compounds of Example 4, Example 6, Example 10 and Example 11.
Human fresh plasma was donated by volunteers with informed consent.
1) The test compounds in Table 3 were respectively prepared into 30 mM stock solutions with DMSO for later use.
2) The 30 mM stock solution was diluted with DMSO solution to solution I at a concentration of 1600 μM. Then the 1600 μM solution I was diluted with acetonitrile (ACN) to a working solution II at a concentration of 16 μM.
3) 7 time points of 0, 15, 30, 60, 90, 120 and 180 min were set in the experiment with two parallel samples for each time point. Two sample groups were set for each compound. 75 μL plasma and 5 μL of the above prepared working solution II with a concentration of 16 μM were added to each group. The reaction system was incubated at 37° C. until the preset time when the reaction was stopped by 300 μL of the ACN solution containing the internal standard. The reaction mixture was centrifuged at 3700 rpm for 10 min, and the supernatant was collected for analysis.
4) Preparation of the standard curve: the previously diluted 1600 μM solution I was diluted with acetonitrile to 1.5 μM/mL solution III as the standard curve for later use. The standard curve concentration was set to […]. After dilution of each concentration of the standard curve, 75 μL plasma was added to 5 μL of each concentration point at a final concentration of 0.02, 0.05, 0.1, 0.25, 0.75, 1.0 and 1.5 uM, respectively. 300 μL stop solution was then added to the samples quickly which was then centrifuged at 3700 rpm for 10 min, and the supernatant was collected for LC-MSMS analysis.

Regarding `Cc1oc(=O)oc1CN1C(=O)CC[C@]12CC[C@@](CO[C@H](C)c1cc(C(F)(F)F)cc(C(F)(F)F)c1)(c1ccccc1)NC2` [Example 3], the Chemical stability entry in data set [1] was “Good (purity reduced by <0.5% after placing for 7 days)”. Further, the solubility (commonly how much of the substance goes into solution per volume) in data set [2] (PH = 5) is < 100 µg/mL.

For `C[C@@H](OC[C@@]1(c2ccccc2)CC[C@]2(CCC(=O)N2)CN1C(=O)OCCN1CCN(C)CC1)c1cc(C(F)(F)F)cc(C(F)(F)F)c1` [Example 4], in data set [1], the Chemical stability entry is on record as “Good (purity reduced by <0.5% after placing for 7 days)”. Moreover, the “plasma concentration of the compound of the examples” value amounted to 1160 nM in data set [3] (0 min); 980 nM in data set [3] (15 min); 990 nM in data set [3] (30 min); 1000 nM in data set [3] (60 min); 970 nM in data set [3] (90 min); 810 nM in data set [3] (120 min). Moreover, in data set [3] (180 min), the “plasma concentration of the compound of the examples” value stood at 780 nM. For the same compound, the “stability and metabolism to rolapitant in plasma (in words)” value (“stability and metabolism to rolapitant” for short) in data set [3] is on record as “relatively stable in plasma”. Also, in data set [2] (phosphate buffer, PH = 3), the solubility was found to be 2080 µg/mL (≈ 3100 µM).

As for `C[C@@H](OC[C@@]1(c2ccccc2)CC[C@]2(CCC(=O)N2C(=O)OCC(=O)O)CN1)c1cc(C(F)(F)F)cc(C(F)(F)F)c1` [Example 6], the Chemical stability result in data set [1] is on record as “Good (purity reduced by <0.5% after placing for 7 days)”. The “plasma concentration of the compound of the examples” value was 980 nM in data set [3] (0 min); 850 nM in data set [3] (15 min); 910 nM in data set [3] (30 min); 850 nM in data set [3] (60 min); 770 nM in data set [3] (90 min); 700 nM in data set [3] (120 min). In addition, the “plasma concentration of the compound of the examples” value in data set [3] (180 min) came out at 530 nM. The “stability and metabolism to rolapitant” value in data set [3] is reported as “overall amount of metabolism in plasma is relatively small”. Further, the solubility in data set [2] (phosphate buffer, PH = 3) was determined as 1120 µg/mL (≈ 1860 µM).

For `C[C@@H](OC[C@@]1(c2ccccc2)CC[C@]2(CCC(=O)N2COC(=O)N(C)C)CN1)c1cc(C(F)(F)F)cc(C(F)(F)F)c1` [Example 9], in data set [1], the Chemical stability result is “Good (purity reduced by <0.5% after placing for 7 days)”. Besides, the solubility in data set [2] (phosphate buffer, PH = 3) was < 100 µg/mL.

Consider `CC(C)[C@H](N)C(=O)OCCCOC(=O)N1C[C@@]2(CCC(=O)N2)CC[C@@]1(CO[C@H](C)c1cc(C(F)(F)F)cc(C(F)(F)F)c1)c1ccccc1.O=C(O)C(F)(F)F` [Example 10], for which the “plasma concentration of rolapitant after metabolism of the compound of the examples” value (shortened to “plasma concentration of rolapitant”) in data set [3] (0 min), in data set [3] (15 min), in data set [3] (30 min), in data set [3] (60 min), in data set [3] (90 min) and in data set [3] (120 min) was 0 nM in each case. Moreover, in data set [3] (180 min), the “plasma concentration of rolapitant” value stood at 0 nM. For the same compound, the “plasma concentration of the compound of the examples” value in data set [3] (0 min) amounted to 1040 nM; in data set [3] (15 min) it was 920 nM; in data set [3] (30 min), 970 nM; in data set [3] (60 min), 960 nM; in data set [3] (90 min) it was 930 nM; in data set [3] (120 min), 950 nM. Further, the “plasma concentration of the compound of the examples” value in data set [3] (180 min) was found to be 880 nM. The “stability and metabolism to rolapitant” value in data set [3] is on record as “relatively stable in plasma”. The Water solubility in data set [2] (PH = 3) is listed as 1.86 mg/mL(PH = 3) mg/ml.

Turning to `CC(C)[C@H](N)C(=O)OCCOC(=O)N1C[C@@]2(CCC(=O)N2)CC[C@@]1(CO[C@H](C)c1cc(C(F)(F)F)cc(C(F)(F)F)c1)c1ccccc1.O=C(O)C(F)(F)F` [Example 11], the Chemical stability entry in data set [1] was “Good (purity reduced by <0.5% after placing for 7 days)”. The “plasma concentration of rolapitant” value came to 10 nM in data set [3] (0 min); 0 nM in data set [3] (15 min); 0 nM in data set [3] (30 min); 10 nM in data set [3] (60 min); 0 nM in data set [3] (90 min); 0 nM in data set [3] (120 min). Further, the “plasma concentration of rolapitant” value in data set [3] (180 min) came out at 0 nM. Further, the “plasma concentration of the compound of the examples” value in data set [3] (0 min) stood at 1010 nM; in data set [3] (15 min) it was 990 nM; in data set [3] (30 min) it was 910 nM; in data set [3] (60 min), 920 nM; in data set [3] (90 min) it was 1030 nM; in data set [3] (120 min), 970 nM. Moreover, in data set [3] (180 min), the “plasma concentration of the compound of the examples” value came out at 950 nM. In addition, in data set [3], the “stability and metabolism to rolapitant” value is “relatively stable in plasma”. Further, the Water solubility in data set [2] (PH = 3) was 2.81 mg/mL(PH = 3) mg/ml.

In the case of `C[C@@H](OC[C@@]1(c2ccccc2)CC[C@]2(CCC(=O)N2)CN1C(=O)OCOC(=O)CN)c1cc(C(F)(F)F)cc(C(F)(F)F)c1` [Example 12], the Chemical stability entry in data set [1] is given as “Poor (purity reduced by >2.0% after placing for 7 days)”.

For the compound `C[C@H](N)C(=O)OCOC(=O)N1C[C@@]2(CCC(=O)N2)CC[C@@]1(CO[C@H](C)c1cc(C(F)(F)F)cc(C(F)(F)F)c1)c1ccccc1` [Example 13], the Chemical stability entry in data set [1] is listed as “Moderate (purity reduced by 0.5%~2.0% after placing for 7 days)”.

On to `CC(OC(=O)[C@@H](N)C(C)C)OC(=O)N1C[C@@]2(CCC(=O)N2)CC[C@@]1(CO[C@H](C)c1cc(C(F)(F)F)cc(C(F)(F)F)c1)c1ccccc1` (stereo partly shown) [Example 14], for which, in data set [1], the Chemical stability entry is reported as “Good (purity reduced by <0.5% after placing for 7 days)”. In addition, the solubility in data set [2] (phosphate buffer, PH = 4) is 4500 µg/mL (≈ 6540 µM).

With `C[C@@H](OC[C@@]1(c2ccccc2)CC[C@]2(CCC(=O)N2)CN1C(=O)OCOC(=O)[C@@H](N)CCCCN)c1cc(C(F)(F)F)cc(C(F)(F)F)c1` [Example 17], in data set [1], the Chemical stability result is listed as “Moderate (purity reduced by 0.5%~2.0% after placing for 7 days)”.

As for `CC(C)[C@@H](N)C(=O)OCOC(=O)N1C[C@@]2(CCC(=O)N2)CC[C@@]1(CO[C@H](C)c1cc(C(F)(F)F)cc(C(F)(F)F)c1)c1ccccc1.O=C(O)C(F)(F)F` [Example 18], in data set [1], the Chemical stability entry is recorded as “Good (purity reduced by <0.5% after placing for 7 days)”. Moreover, the Water solubility in data set [2] (PH = 4) is 2.62 mg/mL (PH = 4) mg/ml.
